Data from patent publication US6797285B1, “Leaves of Cajanus Cajan(L.) Millsp and extract, formulation and uses thereof” (priority 1999, dated 2004).
Marks after values point to notes of the source that are not given here.

Columns and labels:
[1] = test system: mouse pain induced by acetic acid; assay: writhing response on mouse (acetic acid); assay type: in vivo, NIH mice; conditions: 0.013 g/kg/day, gavage 7 days
Description: Divided the mice into 5 groups randomly, i.e. control group (0.2 ml/10 g distilled water), indometacin-treated group (0.013 g/kg) and three Shengmaichenggu capsule-treated groups (dosages are shown in table 10). The mice were administered by gavage for 7 days. […] Recorded the first time when the writhing response appeared caused by pain for each mouse, the number of the writhing response appeared in 10 minute and the analgesic percent.

threshold of pain = assay: hot-plate test on mouse; assay type: in vivo, NIH female mice
Description: Adjusted the temperature of water bath box to 55° C.±1° C. I.C. Immersed one big beaker in the water bath and put mice into the beaker. Recorded the period from the time when animals were put into the beaker to that when animals licked feet due to pain, and defined the period as the threshold of pain of that mouse.
Screened out the mice whose threshold of pain were in the range of 5-30 seconds, and divided them randomly into 5 groups including control group, indometacin-treated group and three Shengmaichenggu capsule-treated groups (The dosage are shown in table 11). Administered medicaments to animals by gavage for continuous 7 days. Determined the threshold of pain at the time of 30 minutes and 60 minutes after the administration at day 7 respectively, and observed the changes in the threshold of pain after administration. Room temperature should be controlled in the range of 15-20° C.

[2] = test system: mouse pinnal inflammation caused by dimethylbenzene; assay: mouse pinnal inflammation induced by dimethylbenzene; assay type: in vivo, NIH mice; conditions: 0.013 g/kg/day, gavage 7 days
Description: Divided the mice into 5 groups randomly with 8 mice each, i.e. control group, indometacin-treated group and three Shengmaichenggu capsule-treated groups (dosages are shown in table 12). The mice were administered medicaments in different concentration by gavage. […] Killed the mice after […] by decollation. Cut out the equal area at the same position from both ears of the mouse with perforator, and weighted with torsion balance. The swell degree is defined as the weight difference of subtracting the weight of the right ear from that of the left. Analyzed the data of swell degree of the control group and the treated groups statistically.

monocytophagous function = monocytophagous function of mouse (china ink clearance), prednisone acetate immunosuppression; assay type: in vivo, NIH mice; conditions: 0.04 g/kg/day, gavage 20 days
Description: (§1) The mice were divided into 6 groups randomly, i.e. control group, modeled group, levamisole-treated group, and three Shengmaichenggu capsule-treated groups (dosages are shown in table 14). […] Administered distilled water to the control group by gavage in the same period. At the time of 30 minutes after administering on the day 20, injected […] into tail vein at a dosage of 0.01 ml/l10 g. At the 2th and 12th minute after injection, took 10 μl orbit blood and put into 3 ml 0.1% Na2CO3 solution and shook up. Detected optical density (OD) by colorimetric analysis in 722-grating photometer (λ=620). […] The animals were killed by dislocating cervical vertebra. The liver and spleen were weighted respectively. Determined the weight of immune organs of every mouse according to the immune organ weighting method. Calculated the immune organ index and made a statistical analysis for the result.

[3] = test system: immune organs (thymus, spleen); assay: immune organ coefficient of mouse, prednisone acetate immunosuppression; assay type: in vivo, NIH mice; conditions: Dosage/kg/day 0.04
Description: as §1

serum hemolysin = assay: hemolysin content of mouse immunised by chicken blood cells; assay type: in vivo, NIH mice; conditions: 0.04 g/kg/day
Description: The grouping and administering scheme was the same as that of the above-mentioned Experiment of nonspecific immunological functions. At the first day of administration, injected 5% suspension of chicken red blood cells to abdominal cavity of mice at a dosage of 0.2 ml/one mouse. Seven days after immunization, took blood from eyeball and centrifuged. The serum was diluted 100 times with physiological saline. 1 ml of the diluted serum was mixed with 0.5 ml of 5% suspension of chicken red blood cells and 0.5 ml of 10% complement. After incubation in an incubator at 37° C. for 30 minutes, the reaction was terminated by putting the mixture into a 0° C. refrigerator.
The formulated test solution was centrifuged. Took the supernatant and detected optical density (OD) by colorimetric analysis in 722-grating photometer (λ=620). Set up a control group free of serum and took the supernatant of the centrifuged test solution of this group as the “0” basis for colorimetric assay. Took “OD” as the index for quantifying the serum hemolysin and analysed the data statistically.

mice lymphocyte = assay: cellular immunity test: transformation reaction of mice lymphocyte (PHA); assay type: in vivo, NIH mice; conditions: 0.04 g/kg/day
Description: The mice were divided into 6 groups randomly, i.e. control group, model group levamisole-treated group, and three Shengmaichenggu capsule-treated groups at different dosages (dosages are shown in table 17). Administered by gavage once a day for continuous 7 days. After the last administration, all the animals were immunized by injecting 5% suspension of chicken red blood cells to abdominal cavity at a dosage of 0.2 ml/one mouse. Then the animals were injected PHA to abdominal cavity at a dosage of 0.025 ml/10 g for continuous 3 days. All groups except control group were administered prednisone acetate at a dosage of […] body weight by gavage for continuous 7 days. At the time of 12 hours after last administration, the experiment was carried out according to the Experiment of the content of mouse hemolysin mentioned above in which chicken blood cells were used as immunogen.

tampon-induced granuloma = assay: granuloma induced by tampon on rat; assay type: in vivo, SD rats; conditions: 25 mg/kg/day, gavage
Description: The rats were divided into 5 groups randomly with 12 rats each group, i.e. control group, prednisone acetate-treated group and three Shengmaichenggu capsule-treated groups. An incision was made aseptically along the dorsimeson of a rat anesthetized by pentobarbital sodium and a sterilized tampon was imbedded into the incision and sewed up. The treated groups were administered by gavage 3 days before surgery until the day 7 after surgery. At the 8th day after surgery, the rats were killed by decollation. Avulsed out the tampon-caused granuloma tissue and dried it at 60-90° C. in a oven for 1 hour. Then weighted and subtracted the initial weight of tampon to get the net weight of granuloma tissue. Compared the granuloma weight among these groups and analyzed the results statistically.

acute blood stasis model = assay: hermorheology index of rat acute blood stasis model; assay type: in vivo, SD rats; conditions: 90 mg/kg/day, gavage 20 days
Description: The rats were divided into 6 groups randomly, i.e. normal control group, blood stasis model group, Tetramethylpyrazine phosphate-treated group and three Shengmaichegngu capsule-treated groups (the dosage were shown in table 9). The control group and the blood stasis model group were administered equal volume of distilled water by gavage. Every treated groups were administered liquor drug with different concentrations at a dosage of 2 ml/100 g weight/day, once daily at a fixed time for 20 days. When 24 hours after the last administration, animals except the normal control group were injected epinephrine hydrochloride hypodermically for two times (0.8 mg/kg) with an interval of 3 hours. The rats were immersed in water at 4±1° C. for 5 minutes at the time of 1.5 hour after the first injection of epinephrine hydrochloride, then the animals fast. In the next morning, eyeball blood was taken from anesthetized animals (injected pentobarbital sodium to abdominal cavity at a dosage of 30 mg/kg ). Hermorheology indexes were determined which include specific viscosity of whole blood, specific viscosity of plasma, erythrocyte sedimentation and hematokrit.

In the case of `COc1ccc2c(c1)c(CC(=O)O)c(C)n2C(=O)c1ccc(Cl)cc1` [Indometacin, indometacin], the Analgesic percent [1] is reported as 75## %, the “Number of writhing mice” value [1] is reported as 2## and the “The First time when the writhing response appeared” value [1] is reported as 572.75 ± 182.13 s. The “Threshold of pain at different time after administration, 30 min” value (threshold of pain; 0.013 g/kg/day, day 7, 30 min) was 28.07 ± 6.67 S, the “Threshold of pain at different time after administration, 60 min” value (threshold of pain; 0.013 g/kg/day, day 7, 60 min) was 24.64 ± 6.49 S and the “Threshold of pain before administration” value (threshold of pain; baseline, group 0.013 g/kg/day) was 18.93 ± 5.41 S. The Swell degree [2] was 0.5500 ± 0.258 mg.

With `c1ccc([C@H]2CN3CCSC3=N2)cc1` [Levamisole, levamisole] the “Phagocytic activity α” value (monocytophagous function) was 5.1964 ± 0.7761, the “Phagocytic count K” value (monocytophagous function) was 0.0273 ± 0.00852 and the “Immune organ coefficient, Spleen” value [3] was 52.82 ± 0.887 mg/kg. The “Immune organ coefficient, Thymus” value [3] was 1.501 ± 0.334 mg/kg, the “OD (Optical density), hemolysin content” value (serum hemolysin) was 0.7370 ± 0.1444 and the “Transformation rate of lymphocyte” value (mice lymphocyte) was 0.7370 ± 0.03234 %. It also gave a limphoblast (mice lymphocyte) of 0.4310 ± 0.05043 % and a transition state cells (mice lymphocyte) of 0.3050 ± 0.0495 %.

`CC(=O)OCC(=O)[C@@]1(O)CC[C@H]2[C@@H]3CCC4=CC(=O)C=C[C@]4(C)[C@H]3C(=O)C[C@@]21C` [Prednisone acetate, prednisone acetate] was tested, and the “Net weight of granuloma” value (tampon-induced granuloma) was 33.45 ± 13.10 mg.

`Cc1nc(C)c(C)nc1C.O=P(O)(O)O` [Tetramethylpyrazine phosphate] was tested, and the Erythrocyte sedimentation (acute blood stasis model) was 1.80 ± 0.27, the Hematokrit (acute blood stasis model) was 43.55 ± 2.39 and the “Specific viscosity of plasma” value (acute blood stasis model) was 1.95 ± 0.08. The “Specific viscosity of whole blood, High shearviscosity coefficient” value (acute blood stasis model) was 5.59 ± 0.40 and the “Specific viscosity of whole blood, Lower shearviscosity coefficient” value (acute blood stasis model) was 20.87 ± 2.63.
